# Earlier results, collected in patent publication US20100087454A1, “MUCOSAL BIOADHESIVE SLOW RELEASE CARRIER FOR DELIVERING ACTIVE PRINCIPLES” (priority 2007, published 2010).
# Conditions: after systemic administration orally; relative to 50% inhibitory dose of herpes simplex-1 virus
compound,measurement,value
Nc1nc2c(ncn2COCCO)c(=O)[nH]1 [acyclovir],peak acyclovir concentrations in saliva,at the lower end of the 50% inhibitory dose of herpes simplex-1 virus
